Where two headings read alike, the source gives them in different places.
Legend:
[1] = Acid neutralizing capacity (ANC) test and contribution of each active ingredient (21 C.F.R. 331); type: physicochemical
Experimental: Acid Neutralizing Capacity
Reagent standardization: as disclosed above.
Temperature: as disclosed above.
pH meter: as disclosed above.
Test suspension: the composition of Ex 1 was well-mixed and exactly 16.0 g (one unit dose) were transferred into a 250 ml glass beaker; sufficient water was added to obtain a total volume of about 70 ml; the resulting suspension was then mixed by means of a magnetic stirrer at 300±30 rpm for one minute. […]
Calculation of the mEq value: the number of mEq of acid neutralized by the test suspension was calculated as follows: […]
an accurately measured volume of an aluminum phosphate suspension containing exactly 9.904 g of aluminum phosphate gel, corresponding to the amount present in a one unit dose (16 g) of the antacid composition of Ex 1, were placed into a 250 ml glass beaker; distilled water was added up to a volume of 70 ml and the resulting suspension was mixed by means of a magnetic stirrer at 300±30 rpm for one minute; […]
Calculation: the percent contribution of each active ingredient in the total antacid composition of Ex 1 was calculated as follows: [formula]

[2] = Labelling of aluminum phosphate gel-containing antacid material with nuclide materials; type: physicochemical
Source text: After testing several nuclide materials having suitable gamma energies in the range of from 60 to 500 keV, such as ^99m technetium-containing materials (^99m Tc-sulfur colloids, ^99m Tc-albumin microspheres, ^99m Tc-dimercaptosuccinic acid complexes, ^99m Tc-polyphosphates, -pyrophosphates and -diphosphonates), it appeared that ^99m Tc-hydroxymethylene diphosphonate (^99m Tc-HMDP) is the most suitable radiopharmaceutical material for labelling aluminum phosphate gel-containing antacid material.

[3] = 21 C.F.R. 331; cited from earlier work
[4] = oral, cited from earlier work

For `[O]=[Mg]` [MgO, magnesium oxide], which “contribution of active ingredient to ANC” value ([1]; amount present in one unit dose of Ex 1) is on record?
The value was 4.88 mEq.

And the “percent contribution of active ingredient to total ANC” value ([1]; relative to total antacid composition of Ex 1)?
Its value is 40%.

What does the source list for “^99m Tc-hydroxymethylene diphosphonate [^99m Tc-HMDP]”?
labelling efficiency [2]: high labelling efficiency; adsorption onto the wall of the reaction vessels or tubes ([2]; mainly glass): substantially non-adsorbed

For sucralfate, which antacid properties [3] is on record?
The antacid properties was “devoid of any antacid properties”.

What about the Al-adhesiveness duration ([4]; no ulceration) of the same compound?
The Al-adhesiveness duration was 3 to 4 h.

What about the Al-adhesiveness duration ([4]; ulcerated sites of the gastric mucous membrane) of the same compound?
Its Al-adhesiveness duration is “about 24 h”.
